These are literature values, as cited in article PMC8508678, “Novel P2X7 Antagonist Ameliorates the Early Phase of ALS Disease and Decreases Inflammation and Autophagy in SOD1-G93A Mouse Model” (International Journal of Molecular Sciences, 2021).

For data set [1], the system named is SOD1-G93A mice. Also noted: key to Motor behavior / Survival: The symbol ↑ refers to upregulation; ↓ to downregulation; = indicates no change with respect to the vehicle-treated SOD1-G93A mice.
Data set [2] deals with SOD1-G93A mice. Also noted: key to Motor Neuron loss: The symbol ↑ refers to upregulation; ↓ to downregulation; = indicates no change with respect to the vehicle-treated SOD1-G93A mice.
In data set [3] the test system is SOD1-G93A mice. More on the design: key to NF-κB / NOX2 / P2X7 / ARG1 / CD68 / GFAP / LC3B-II: The symbol ↑ refers to upregulation; ↓ to downregulation; = indicates no change with respect to the vehicle-treated SOD1-G93A mice.
The mark [4] stands for this setting: ALS mice, four times per week starting at post-natal day 60 ref 41.
[5] abbreviates: SOD1-G93A mice, vs vehicle ref 28, 29.
The mark [6] stands for this setting: SOD1-G93A mice, vs vehicle ref 31.

Read-outs that look alike come from different tables or passages of the source.

With `O=C(NCC1(N2CCN(c3ccccc3)CC2)CCOCC1)c1cccnc1Sc1ccccc1` [JNJ-47965567], in the data set on SOD1-G93A mice [1] (setting [4]), the “disease onset, body weight loss and motor parameters” value is “able to delay disease onset, reduce body weight loss, and improve the motor parameters”; the “survival or motor neuron number” value was “without affecting”. The “survival, disease progression, molecular and cellular parameters of ALS” value in the data set with SOD1-G93A mice [1] (SOD1-G93A mice, three times per week from the early symptomatic phase ref 32) was “totally failed”.
Take `CCOc1ccc(Nc2ccc(/C(=C3C=C/C(=[N+](/CC)Cc4cccc(S(=O)(=O)[O-])c4)C=C/3C)c3ccc(N(CC)Cc4cccc(S(=O)(=O)O)c4)cc3C)cc2)cc1` [BBG, brilliant blue G]: in the data set with SOD1-G93A mice [2] (SOD1-G93A mice ref 29), the “motor neuron survival in the lumbar spinal cord” value is on record as “enhances”. The disease onset entry with SOD1-G93A mice [1] (ALS mice, modest improvement in general conditions and motor performance ref 29) was “induces a delay of disease onset”. Moreover, the Survival result in the data set with SOD1-G93A mice [1] (setting [5]) is “=”. Also, the microgliosis result with SOD1-G93A mice [3] (SOD1-G93A mice ref 29) was “reduces”. In the data set on SOD1-G93A mice [3] (setting [5]), the GFAP result is recorded as “=” and the P2X7 result was “=”.
`C[C@H](N=C(NC#N)Nc1cccc2ncccc12)c1ccccc1` [A804598]: the “Motor Neuron loss” value with SOD1-G93A mice [2] (setting [6]) is listed as “=”. Also, the “amelioration of disease progression” value with SOD1-G93A mice [1] (SOD1-G93A mice ref 31) was “failed”. In addition, in the data set with SOD1-G93A mice [1] (setting [6]), the Motor behavior entry is given as “=” and the Survival entry is “=”. For the same molecule, in the data set on SOD1-G93A mice [3] (SOD1-G93A mice ref 31), the “P2X7 expression levels in the spinal cord” value is “failed to affect”; the “autophagic substrate p62 accumulating in vivo” value is given as “decreases”; the “motor neuron loss or astrogliosis and microgliosis in the spinal cord” value is listed as “neither A804598 nor AXX13 treatments affected”. In addition, in the data set on SOD1-G93A mice [3] (setting [6]), the ARG1 entry is given as “=”, the CD68 result was “=”, the GFAP entry is given as “=” and the LC3B-II result is reported as “=”. Besides, in the data set on SOD1-G93A mice [3] (setting [6]), the NF-κB result is recorded as “=”, the NOX2 entry is “=” and the P2X7 result is recorded as “=”. Further, in the data set on SOD1-G93A mice [3] (SOD1-G93A mice, only this inflammatory marker affected ref 31), the “IL-1β mRNA expression” value is on record as “downregulated”.
